Legend:
[1] = target: DGKalpha (hDGKalpha(1-735)-N-His) (Homo sapiens (Human), UniProt P23743); assay: In vitro DGK inhibition assay, ADP-Glo (in house), DGKalpha; format: biochemical; conditions: DLG liposomes, 25 μM ATP, 4 nM enzyme, 1 hour reaction
Experimental: (§1) DGK α and ζ kinases use ATP to phosphorylate the substrate 1,2-dilauroyl-sn-glycerol (DLG, incorporated in the liposomes). ATP is converted to ADP as a result of this enzymatic reaction.
(§2) After the kinase reaction, an ATP-depletion reagent is added to terminate the kinase reaction and deplete any remaining ATP, leaving only ADP. Second, a detection reagent is added to simultaneously convert ADP to ATP and allow the newly synthesized ATP to be converted to light using a coupled luciferase/luciferin reaction.
(§3) Purification of both enzymes was performed as previously described by Takahashi et al., PeerJ, 2018 (Takahashi, D.; Sakane, F. Expression and purification of human diacylglycerol kinase alpha from baculovirus-infected insect cells for structural studies. PeerJ 2018, 6, No. e5449).
(§4) A concentrated liposome solution was prepared in assay buffer without DTT and BSA: 2 mM of DLG in 21 mM of total liposome (2 mM DLG/8 mM PS/11 mM PC). The reaction mixtures contain the assay buffer with a final DLG concentration of 125 uM ATP concentrations of 25 μM (for DGKA assay) or 50 μM (for DGKZ assay). The reactions were started by addition of DGK α and ζ kinases at 4 nM and 2 nM final concentrations, respectively. After 1 hour reaction, the amount of ADP formed was detected with the ADP-Glo kinase assay (Promega) according to the manufacturer instructions. Compounds were added in 11-points dose response, starting at […], 1:3 dilutions, with a final DMSO concentration of 2%. The multidrop combi was used as a liquid handler and luminescence was read with 0.5 s by the envision reader (PE).

[2] = target: DGKzeta (hDGKzeta(1-928)-N-His) (Homo sapiens (Human), UniProt Q13574); assay: In vitro DGK inhibition assay, ADP-Glo (in house), DGKzeta; format: biochemical; conditions: DLG liposomes, 50 μM ATP, 2 nM enzyme, 1 hour reaction
DGKzeta (hDGKzeta(1-928)-N-His), sequence (Q13574 whole entry): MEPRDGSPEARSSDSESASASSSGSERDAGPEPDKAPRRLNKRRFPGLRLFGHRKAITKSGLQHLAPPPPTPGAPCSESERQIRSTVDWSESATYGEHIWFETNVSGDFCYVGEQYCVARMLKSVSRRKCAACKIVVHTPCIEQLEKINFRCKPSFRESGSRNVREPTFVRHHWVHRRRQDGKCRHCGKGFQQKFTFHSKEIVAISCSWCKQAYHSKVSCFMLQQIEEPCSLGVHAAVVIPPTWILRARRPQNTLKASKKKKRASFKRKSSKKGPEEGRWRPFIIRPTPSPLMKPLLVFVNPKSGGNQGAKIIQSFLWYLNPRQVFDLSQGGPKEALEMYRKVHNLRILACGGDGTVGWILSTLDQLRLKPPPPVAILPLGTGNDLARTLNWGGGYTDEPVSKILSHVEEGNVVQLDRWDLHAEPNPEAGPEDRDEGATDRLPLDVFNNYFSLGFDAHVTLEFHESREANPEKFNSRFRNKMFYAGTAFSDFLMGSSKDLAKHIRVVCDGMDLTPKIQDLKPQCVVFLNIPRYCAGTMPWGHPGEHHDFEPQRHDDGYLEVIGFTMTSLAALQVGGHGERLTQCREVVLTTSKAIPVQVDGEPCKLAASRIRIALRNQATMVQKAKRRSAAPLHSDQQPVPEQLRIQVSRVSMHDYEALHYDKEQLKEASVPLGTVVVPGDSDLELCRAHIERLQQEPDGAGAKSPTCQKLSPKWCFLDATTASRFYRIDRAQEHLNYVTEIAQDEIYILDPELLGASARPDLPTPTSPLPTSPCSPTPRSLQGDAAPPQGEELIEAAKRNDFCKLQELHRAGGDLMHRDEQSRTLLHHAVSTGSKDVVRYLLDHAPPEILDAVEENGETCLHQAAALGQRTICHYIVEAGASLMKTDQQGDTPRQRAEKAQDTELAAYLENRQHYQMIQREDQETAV
Experimental: as §1, §2, §3, §4

[3] = system: primary human T-cells; assay: IL2 secretion measurements in CD3-stimulated T-cells; format: cell-based; conditions: CD3 condition; for Emax IL2 (% activation): 24 hours, 20 μM reference compound A1 = 100%; for EC50: Homo sapiens, T-cell, IL2 secretion after 24 hours, read-out: Tcell IL2 CD3 EC50
Experimental: As readouts for T-cell activation, 1L2 secretion after 24 hours and proliferation after 5 days was measured. Increases in 1L2 secretion and proliferation upon compound treatment were assessed as the % of the maximum of reference compound A1. WO 2016/139181 discloses reference compound A1 as example 70. As a counter screen and to make sure that no unwanted TCR-independent activation was triggered, PBS conditions were run for all compounds.
Expanded primary human T-cells were thawed and cultured in RPMI 1640 (Gibco, #61870-010)+5% human serum (HS, Sigma, #H3667)+1 mM Sodium Pyruvate (Gibco, #11360-039)+50 μM 2-mercaptoethanol (Gibco, #31350-010) and 1× Pen-Strep (Life Technologies, #15140122) medium at density of 2 Mio/ml for 3 hours in 5% CO2, 37° C. and 95% humidity. For coating of plates, […] or PBS++ with CD3 antibody (concentration depending on donor and determined by CD3 titrations) was added 100 μl/well to Poly-D Lysine coated 96-well plates. Plates were sealed and incubated at room temperature for 3 hours on a table-top rocking platform. After incubation, plates were washed once with PBS−− and filled with 40 μl/well culture medium only. Compounds were then added (see next section) to medium only plates. After 3 hours of culturing the T-cells, cells were filtered through a cell strainer (Miltenyi Biotech, #130-041-407), counted again and concentration was adjusted to 1.25 Mio/ml.
Cells were then seeded 80 μl/well to the 40 μl/well including dispensed compounds according to plate layout. By adding cells, compounds were further diluted 1:3, and resulting in 100 k cells/120 μl/well. After 24 hours 40 μl of supernatant was collected carefully from the top while not disturbing the cells and transferred into a round bottom 96 well plate. Collected and frozen supernatant was used for detection of IL2 using the IL-2 Human ProQuantum Immunoassay Kit (Invitrogen) or using the Human IL-2 ELISA Kit (Thermo Fisher).
(§5) Compounds were added in a 5 or 6 pt dose response with the Tecan D300e Digital Dispenser, all conditions 3 times more concentrated than the end-concentration, since cells are added afterwards (80 μl cells to 40 μl prepared medium with treatment). The DR was starting at 20 μM or 10 μM final top concentration and a dilution factor of 3.333. The positive control was the reference compound A1 that was added in a dose response as well, additionally to 3 wells of only 20 μM representing the positive stimulator control. All wells were normalized with DMSO to a final concentration of 0.6% (0.2% end-concentration).
The immunoassay is done following the manufacturer's manual (Invitrogen, #A35603). Additional information: For the immunoassay, MicroAmp™ EnduraPlate™ Optical 384-Well plates are used. Frozen supernatant is thawed and centrifuged for 5 minutes at 1000×g, both steps at 4° C. After centrifugation, required sample amount is taken from the top, and in a separate LightCycler V-bottom plate (working plate) diluted with assay dilution buffer, dilution factor depending on the PBS or CD3 condition but at least 1:3. IL-2 standard and blanks are prepared in the same V-bottom plate, standard with a range of […] (extended version). After preparation, 5 μl of sample dilutions or standard/blanks are transferred to the optical 384-well plate (assay plate) and the 10 μl reaction protocol is being followed. For measurement, the QuantStudio 12K Flex system is used. Raw data is extracted and IL-2 concentrations are calculated with the Thermo Fisher online app (apps.thermofisher.com/apps/proquantum).
ELISA is done following the manufacturer's manual (Thermo Fisher Scientific, #88-7025-88). Additional information: For the ELISA Nunc MaxiSorp 96 well plates are used. Frozen supernatant is thawed and centrifuged for 5 minutes at 1000×g, both steps at 4° C. […]

[4] = system: primary human T-cells; assay: T-cell proliferation assay (CellTiter-Glo); format: cell-based; conditions: CD3 condition; for Emax proliferation (% activation): 5 days, 20 μM reference compound A1 = 100%; for EC50: Homo sapiens, T-cell, 120 h, proliferation after 5 days, CellTiter-Glo, read-out: Tcell Proliferation CD3 EC50
Experimental: For coating of plates, PBS++ only or PBS++ with CD3 antibody (concentration depending on donor and determined by CD3 titrations) is added 100 μl/well to Poly-D Lysine coated 96-well plates. Plates are sealed and incubated at room temperature for 3 hours on a table-top rocking platform. After incubation, plates are washed once with PBS−− and filled with 40 μl/well culture medium only. Compounds are then added (see next section) to medium only plates. After 3 hours of culturing the T-cells, cells are filtered through a cell strainer (Miltenyi Biotech, #130-041-407), counted again and concentration is adjusted to 1.25 Mio/ml.
Cells are then seeded 80 μl/well to the 40 μl/well including dispensed compounds according to plate layout. By adding cells, compounds are further diluted 1:3, and resulting in 100 k cells/120 μl/well. After 48 hours 40 μl of supernatant is collected carefully from the top while not disturbing the cells. Cells are assessed for proliferation 5 days later by measuring […] using CellTiterGlo (Promega).
as §5, with “The DR was starting at 20 μM or 10 μM final top concentration and a dilution factor of 3.333.” left out
After 5 days, for detection of ATP which is directly proportional to the number of cells present per well, the CellTiter-Glo® 2.0 Reagent is used. After visual control for toxicity or precipitations of the tested compounds, the plates are equilibrated to room temperature for 45 minutes. CellTiter-Glo® 2.0 Reagent is equilibrated to room temperature as well. After equilibration, an equal amount of CellTiter-Glo reagent is added to the cells (80 μl/well) with an electronic multichannel pipette. Plates are placed on a rocking platform for 15 minutes at room temperature. After incubation, the bottom of the plates is sealed with backing tape. Luminescence is measured with PHERAstar FSX (interval time 0.5 sec, gain 3000, focal height 15 mm) and exported as CSV file for analysis in Genedata screener.
Calculations and Data Reporting CD3 and PBS plates were analysed separately in Genedata Screener using Roche Normalization PCT_POS_CTRL with DMSO set as Neutral Control and 20 μM of the reference compound A1 set as Stimulator Control/100%.
For CD3 conditions EC50 and Emax of the fitted sigmoidal curve were reported. If no curve could be fitted, the EC50 was reported as blank field and the Emax was based on individual data points. […] Compounds which activate unstimulated cells (see IL2 measurements) or compounds which negatively affected viability were flagged.

DGKalpha (hDGKalpha(1-735)-N-His), sequence (P23743 whole entry): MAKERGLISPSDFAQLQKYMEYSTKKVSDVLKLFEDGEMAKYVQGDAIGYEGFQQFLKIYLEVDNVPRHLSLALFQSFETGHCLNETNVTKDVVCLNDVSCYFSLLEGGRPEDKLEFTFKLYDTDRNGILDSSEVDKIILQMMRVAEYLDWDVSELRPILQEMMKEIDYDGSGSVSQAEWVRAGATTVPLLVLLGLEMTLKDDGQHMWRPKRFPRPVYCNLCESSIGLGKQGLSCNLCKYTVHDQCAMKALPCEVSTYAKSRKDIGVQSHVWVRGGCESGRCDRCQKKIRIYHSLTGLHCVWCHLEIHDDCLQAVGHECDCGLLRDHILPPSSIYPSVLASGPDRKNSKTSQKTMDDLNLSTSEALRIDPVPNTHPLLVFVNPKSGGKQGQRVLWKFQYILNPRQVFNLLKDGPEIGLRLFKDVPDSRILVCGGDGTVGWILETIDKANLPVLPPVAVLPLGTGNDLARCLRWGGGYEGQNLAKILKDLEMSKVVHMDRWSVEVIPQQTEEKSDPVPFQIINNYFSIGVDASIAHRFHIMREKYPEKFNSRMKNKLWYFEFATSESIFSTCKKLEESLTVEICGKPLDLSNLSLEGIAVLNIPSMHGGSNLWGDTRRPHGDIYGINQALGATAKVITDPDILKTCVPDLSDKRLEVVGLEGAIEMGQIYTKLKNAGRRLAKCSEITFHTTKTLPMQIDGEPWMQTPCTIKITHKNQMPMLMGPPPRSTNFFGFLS

IC50 [1] | IC50 [2] | EC50 [3] | SMILES | Emax IL2 (% activation) [3] | Emax proliferation (% activation) [4] | EC50 [4]
31 µM | 8.77 µM | 6.78 µM | N[C@H]1CS(=O)(=O)c2cc(F)c(-c3cncc(N4CCOCC4)c3)cc2N(Cc2ccc(-c3noc(C(F)(F)F)n3)cc2)C1=O [Example 21, (3R)-3-amino-8-fluoro-1,1-diketo-7-(5-morpholino-3-pyridyl)-5-[4-[5-(trifluoromethyl)-1,2,4-oxadiazol-3-yl]benzyl]-2,3-dihydro-1λ6,5-benzothiazepin-4-one] | 131 % activation | 140 % activation | 3.76 µM
55.2 µM | 23.7 µM | 1.94 µM | N[C@H]1CS(=O)(=O)c2cc(F)c(-c3cncc(C(F)(F)F)c3)cc2N(Cc2ccc(-c3noc(C(F)(F)F)n3)cc2)C1=O [Example 24, (3R)-3-amino-8-fluoro-1,1-diketo-5-[4-[5-(trifluoromethyl)-1,2,4-oxadiazol-3-yl]benzyl]-7-[5-(trifluoromethyl)-3-pyridyl]-2,3-dihydro-1λ6,5-benzothiazepin-4-one] | 235 % activation | 141 % activation | 0.699 µM
41.2 µM | 6.5 µM | 0.997 µM | COc1ccc(-c2ccc(CN3C(=O)[C@@H](N)CS(=O)(=O)c4cc(F)c(-c5cncc(Cl)c5)cc43)cc2)cc1 [Example 27, (3R)-3-amino-7-(5-chloro-3-pyridyl)-8-fluoro-5-[[4-(4-methoxyphenyl)phenyl]methyl]-1,1-dioxo-2,3-dihydro-1λ6,5-benzothiazepin-4-one] | 243 % activation | 111 % activation | 0.308 µM
18.8 µM | 13.6 µM | 0.453 µM | COc1ccc(-c2ccc(CN3C(=O)[C@@H](N)CS(=O)(=O)c4cc(F)c(-c5ccc(C(C)C)nc5)cc43)cc2)cc1 [Example 29, (3R)-3-amino-8-fluoro-7-(6-isopropyl-3-pyridyl)-5-[[4-(4-methoxyphenyl)phenyl]methyl]-1,1-dioxo-2,3-dihydro-1λ6,5-benzothiazepin-4-one] | 110 % activation | 38 % activation | 0.071 µM
29.1 µM | 2.6 µM | 0.327 µM | COc1ccc(-c2ccc(CN3C(=O)[C@@H](N)CS(=O)(=O)c4cc(F)c(-c5cncc(C(C)(C)C)c5)cc43)cc2)cc1 [Example 30, (3R)-3-amino-7-(5-tert-butyl-3-pyridyl)-8-fluoro-5-[[4-(4-methoxyphenyl)phenyl]methyl]-1,1-dioxo-2,3-dihydro-1λ6,5-benzothiazepin-4-one] | 100 % activation | 177 % activation | 0.333 µM
35.2 µM | 3.85 µM | 1.09 µM | CC(C)(C)c1cc(-c2cc3c(cc2F)S(=O)(=O)C[C@H](N)C(=O)N3Cc2ccc(Cl)cc2)cnn1 [Example 31, (3R)-3-amino-7-(6-tert-butylpyridazin-4-yl)-5-[(4-chlorophenyl)methyl]-8-fluoro-1,1-dioxo-2,3-dihydro-1λ6,5-benzothiazepin-4-one] | 80 % activation | 112 % activation | 0.501 µM
13 µM | 3.21 µM | 0.966 µM | CC(C)(C)c1cc(-c2cc3c(cc2F)S(=O)(=O)C[C@H](N)C(=O)N3Cc2ccc(-c3ccc(C(F)(F)F)cn3)cc2)cnn1 [Example 32, (3R)-3-amino-7-(6-tert-butylpyridazin-4-yl)-8-fluoro-1,1-dioxo-5-[[4-[5-(trifluoromethyl)-2-pyridyl]phenyl]methyl]-2,3-dihydro-1λ6,5-benzothiazepin-4-one] | 53 % activation | 164 % activation | 0.439 µM
